# Results published in patent US20260325605A1, “INHIBITORS” (Zealand Pharma A/S, priority 2022, published 2026).
# pIC50: −log10 of the molar value. Read-outs that look alike come from different tables or passages of the source.
# Assays:
# [1] = tested on: T-cell activation in human whole blood; test: Example 5: IFN-g, IL-2 and IL-17A release in thapsigargin stimulated human whole blood; assay type: cell-based; details: 24 Hr, at least 2 replicate experiments
# From the text: Human whole blood was used to assess the potency of Kv1.3 inhibitor peptides on T-cell activation as determined by release of the cytokines IFN-g, IL-2 and IL-17A after stimulation with thapsigargin. Addition of thapsigargin activates a signalling cascade resulting in T cell proliferation and cytokine production, in which the Kv1.3 ion channel plays a key role. Activity of Kv1.3 inhibitors in human primary T cells can thus be measured in this experimental system.
# Human whole blood was obtained from healthy blood donors and was collected after informed consent using Sodium Heparin blood sampling tubes (Becton, Dickinson and Company (BD), Cat #367876). Test peptides were diluted to 4× final testing concentrations in assay buffer (Dulbecco's Modified Eagle's medium (DMEM) with high glucose and GlutaMAX (3.97 mM L-alanine-L-glutamine) (Gibco Cat #61965026) supplemented with 25 mM HEPES buffer, 1 mM Sodium Pyruvate, 100 units/ml Penicillin, 100 μg/ml Streptomycin and 0.05% Casein from bovine milk (Sigma-Aldrich Cat #C4765)) and 25 μl was added to wells of a 96 well tissue culture plate. Then 50 μl human whole blood was added and incubated for minimum 5 minutes at room temperature to allow compound binding. Then 25 μl of 40 μM thapsigargin diluted in assay buffer was added to all wells of the assay plates to activate the cells, followed by incubation for 24 Hr at 37° C./5% CO2 in a humidified box. The assay plates were centrifuged for 10 min at 300 g at 4° C. and the supernatants were transferred to new plates. The concentrations of IFN-g, IL-2 and IL-17A released to the supernatants were measured using a tri-plex human cytokine detection kit (MSD Human U-Plex IFN-g, IL-2 and IL-17A kit; Meso Scale Discovery Cat #K15067L-2) and all three cytokines were measured using a MSD MESO QuickPlex SQ 120 instrument as described by the manufacturer (Meso Scale Discovery, Rockville, Maryland, USA).
# To determine the potency of inhibition for the compounds, the cytokine concentration data were fitted using a three parameter logistic dose response model based on the formula Y=Bottom+(Top−Bottom)/(1+IC50/X), where Y is measured cytokine concentrations, X is compound concentrations and Top, bottom and IC50 are parameters fitted using the software Graphpad Prism version 5.04. The IC50 value calculated from the concentration response curve represents the compound concentration that gives an inhibition response halfway between the basal (Bottom) response and the maximal (Top) response.
# All values are derived from at least 2 replicate experiments. All of the tested Kv1.3 blockers were able to inhibit cytokine production from human T cells present in human whole blood that was stimulated with thapsigargin.
# [2] = target: T1, Kv1.1 (Homo sapiens, UniProt Q09470); test: Patch clamp assay (QPatch), Kv1.1; assay type: cell-based
# T1 construct: expressed in transfected cells
# T1 sequence (Q09470 whole entry): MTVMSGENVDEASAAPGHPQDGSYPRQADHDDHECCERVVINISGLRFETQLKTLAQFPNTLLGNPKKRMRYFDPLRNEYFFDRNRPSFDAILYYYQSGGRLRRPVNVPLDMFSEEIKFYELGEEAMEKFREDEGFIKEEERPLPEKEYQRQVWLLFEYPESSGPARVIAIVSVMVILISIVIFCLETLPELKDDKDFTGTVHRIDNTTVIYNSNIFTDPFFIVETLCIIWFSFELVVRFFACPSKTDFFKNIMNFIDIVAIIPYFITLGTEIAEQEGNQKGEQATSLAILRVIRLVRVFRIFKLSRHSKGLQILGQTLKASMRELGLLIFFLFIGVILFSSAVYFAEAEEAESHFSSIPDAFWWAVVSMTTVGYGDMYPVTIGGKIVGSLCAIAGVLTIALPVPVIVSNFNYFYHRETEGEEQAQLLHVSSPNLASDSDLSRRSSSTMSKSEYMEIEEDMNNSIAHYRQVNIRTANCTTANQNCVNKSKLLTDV
# [3] = target: T2, Kv1.6 (Homo sapiens, UniProt P17658); test: Patch clamp assay (QPatch), Kv1.6; assay type: cell-based
# T2 construct: expressed in transfected cells
# T2 sequence (P17658 whole entry): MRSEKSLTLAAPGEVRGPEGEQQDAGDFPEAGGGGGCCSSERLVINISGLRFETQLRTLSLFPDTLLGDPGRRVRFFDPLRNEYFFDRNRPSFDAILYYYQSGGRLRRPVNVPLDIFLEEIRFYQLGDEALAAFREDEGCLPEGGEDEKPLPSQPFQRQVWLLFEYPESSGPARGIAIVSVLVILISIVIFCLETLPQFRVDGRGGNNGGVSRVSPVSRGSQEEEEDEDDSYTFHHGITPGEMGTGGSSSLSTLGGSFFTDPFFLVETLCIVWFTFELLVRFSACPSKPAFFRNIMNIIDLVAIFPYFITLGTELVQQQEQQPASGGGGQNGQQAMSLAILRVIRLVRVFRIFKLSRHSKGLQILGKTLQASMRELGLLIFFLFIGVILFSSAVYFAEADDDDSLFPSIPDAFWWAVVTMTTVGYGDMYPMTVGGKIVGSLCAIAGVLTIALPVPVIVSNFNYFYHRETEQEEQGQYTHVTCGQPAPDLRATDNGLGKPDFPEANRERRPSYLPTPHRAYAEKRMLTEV
# Procedure: (§1) Selectivity of Kv1.3 inhibitor peptides for Kv1.3 over other potassium ion channels (Kv1.1, Kv1.2 and Kv1.6) was determined using patch clamp assay.
# (§2) Chinese Hamster Ovary (CHO) cell lines stably expressing exogenous human α-subunits of each potassium ion channel were grown and passaged under standard culture conditions.
# (§3) The automated, chip-based planar patch clamp device QPatch® was used to quantitate the ionic currents. All recordings were made in the conventional whole-cell configuration after establishment of gigaohm seals. […] During experiments 0.1% (v/v) BSA was included as a vehicle in all external recording solutions. Currents were elicited from a holding potential of −80 mV using a voltage protocol, which shifted the voltage to 30 mV for 500 ms every 15 s.
# (§4) Concentration-response relationships were established by cumulatively applying seven escalating concentrations of test sample to an individual cell with a recording period of 2 min per compound application.
# (§5) The efficacy was determined as the mean charge for the last three sweeps at the end of each concentration application period from the cursor positions. The percent inhibition for each test dose application period was calculated as the reduction in mean cursor value (charge) relative to the cursor value measured at the end of the vehicle period and used to calculate the IC50 from the concentration response curve.
# [4] = tested on: KLH-induced DTH ear swelling in rats; test: Example 10: Maximal effective dose in KLH-induced DTH model; assay type: in vivo, rat (Lewis)
# Procedure: Healthy male Lewis rats aged 8-9 weeks were immunized on day 0 with 200 μL keyhole limpet hemocyanin (KLH) (from Sigma, cat.no. H7017) (4 mg/mL) emulsified in complete Freund's adjuvant (CFA) (Difco, cat.no. 263810) subcutaneously (SC) at the base of the tail.
# To elicit a KLH-specific T cell-mediated local inflammation, rats were challenged intradermally at indicated timepoints (days 7, 9, 11 or 13 post-immunisation) with 40 μL KLH/NaCl 0.9% (2 mg/mL) in the left ear. Ear edemas were measured after 24-48 hrs and the right ear that was left untreated served as control. A schematic overview of the protocol is depicted in FIG. 1. […]
# This study was conducted as described in example 8 with the difference that the rats were only challenged intradermally at days 7 or 11 post-immunisation (i.e. day 1 and day 5 after treatment) with 40 μL KLH/NaCl 0.9% (2 mg/mL) in the left ear. A schematic overview of the protocol is depicted in FIG. 5.
# The doses of Kv1.3 inhibitor treatment able to reduce the DTH ear swelling response was investigated by comparing the response in rats (n=8/group) treated with vehicle to that of rats treated with different doses of peptide 100. Vehicle or peptide 100 dissolved in vehicle was administered SC (2 mL/kg) on day 6 post-immunisation. The test dose of Kv1.3 inhibitor was 10, 100, 300 or 700 nmol/kg. Test vehicle was 10 mM phosphate, 0.8% w/v NaCl, 0.05% w/v polysorbate20, pH 6.
# As readout of efficacy, the thickness of the induced ear 24 hrs and 48 hrs after respective ear challenge was measured and compared to vehicle control. Ear thickness 24 hrs after challenge is shown in Table 13 and FIG. 6 and ear thickness 48 hrs after challenge is shown in Table 14 and FIG. 7.
# [5] = target: T3, Kv1.2 (Homo sapiens, UniProt P16389); test: Patch clamp assay (QPatch), Kv1.2; assay type: cell-based
# T3 construct: expressed in transfected cells
# T3 sequence (P16389 whole entry): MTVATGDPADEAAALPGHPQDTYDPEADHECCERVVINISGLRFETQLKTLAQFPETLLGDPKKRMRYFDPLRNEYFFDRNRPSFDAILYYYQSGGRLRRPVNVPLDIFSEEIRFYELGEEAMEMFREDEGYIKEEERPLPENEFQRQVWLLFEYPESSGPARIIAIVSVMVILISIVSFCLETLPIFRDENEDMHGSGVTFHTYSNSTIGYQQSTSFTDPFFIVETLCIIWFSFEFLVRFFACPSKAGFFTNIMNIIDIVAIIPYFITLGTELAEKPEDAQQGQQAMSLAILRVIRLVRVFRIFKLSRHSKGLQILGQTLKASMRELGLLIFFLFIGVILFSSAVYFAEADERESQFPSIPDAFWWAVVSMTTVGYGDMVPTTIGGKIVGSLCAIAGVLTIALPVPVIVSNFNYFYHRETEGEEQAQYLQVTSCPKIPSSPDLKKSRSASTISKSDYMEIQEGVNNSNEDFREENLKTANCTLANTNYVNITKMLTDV
# Procedure: as §1, §2, §3, §4, §5
substance,measurement,setting,value
H-P[Nle]E[Nle]RC(1)SASVEC(2)KQKC(3)LAAIGSIFGKC(1)[Nle]NKKC(2)KC(3)YPR-OH [Peptide 100],pIC50,"[1]; read-out: Average IC50, IFN-g",9.96
same,pIC50,"[1]; read-out: Average IC50, IL-2",10.02
same,pIC50,"[1]; read-out: Average IC50, IL-17A",9.82
same,pIC50,"[2]; QPatch, CHO cells stably expressing human Kv1.1, read-out: Potency IC50, Kv1.1",< 5.52
same,Selectivity Kv1.1/Kv1.3,[2]; ratio of IC50 Kv1.1/Kv1.3,>9100
same,pIC50,"[3]; QPatch, CHO cells stably expressing human Kv1.6, read-out: Potency IC50, Kv1.6",< 5.52
same,Selectivity Kv1.6/Kv1.3,[3]; ratio of IC50 Kv1.6/Kv1.3,>9100
same,Mean ear thickness of KLH-induced ear,"[4]; 10 nmol/kg s.c., challenge day 11, 24 hrs post-challenge, vehicle 0.848, p=0.0495",0.807±0.025 mm
same,Mean ear thickness of KLH-induced ear,"[4]; 10 nmol/kg s.c., challenge day 11, 48 hrs post-challenge, vehicle 0.819, p=0.0009",0.761±0.025 mm
same,Mean ear thickness of KLH-induced ear,"[4]; 100 nmol/kg s.c., challenge day 11, 24 hrs post-challenge, vehicle 0.848, p=0.0015",0.777±0.019 mm
same,Mean ear thickness of KLH-induced ear,"[4]; 100 nmol/kg s.c., challenge day 11, 48 hrs post-challenge, vehicle 0.819, p<0.0001",0.713±0.034 mm
same,Mean ear thickness of KLH-induced ear,"[4]; 300 nmol/kg s.c., challenge day 11, 24 hrs post-challenge, vehicle 0.848, p=0.0005",0.772±0.009 mm
same,Mean ear thickness of KLH-induced ear,"[4]; 300 nmol/kg s.c., challenge day 11, 48 hrs post-challenge, vehicle 0.819, p<0.0001",0.684±0.016 mm
same,Mean ear thickness of KLH-induced ear,"[4]; 700 nmol/kg s.c., challenge day 11, 24 hrs post-challenge, vehicle 0.848, p=0.0007",0.771±0.018 mm
same,Mean ear thickness of KLH-induced ear,"[4]; 700 nmol/kg s.c., challenge day 11, 48 hrs post-challenge, vehicle 0.819, p<0.0001",0.671±0.011 mm
same,Mean ear thickness of KLH-induced ear,"[4]; 24 hrs post-challenge, day 2 post-treatment, 100 nmol/kg SC",0.704 mm
same,Mean ear thickness of KLH-induced ear,"[4]; 24 hrs post-challenge, day 6 post-treatment, 10 nmol/kg SC",0.807 mm
same,Mean ear thickness of KLH-induced ear,"[4]; 24 hrs post-challenge, day 6 post-treatment, 100 nmol/kg SC",0.777 mm
same,Mean ear thickness of KLH-induced ear,"[4]; 24 hrs post-challenge, day 6 post-treatment, 300 nmol/kg SC",0.772 mm
same,Mean ear thickness of KLH-induced ear,"[4]; 24 hrs post-challenge, day 6 post-treatment, 700 nmol/kg SC",0.771 mm
same,Mean ear thickness of KLH-induced ear,"[4]; 48 hrs post-challenge, day 3 post-treatment, 100 nmol/kg SC",0.652 mm
same,Mean ear thickness of KLH-induced ear,"[4]; 48 hrs post-challenge, day 7 post-treatment, 10 nmol/kg SC",0.761 mm
same,Mean ear thickness of KLH-induced ear,"[4]; 48 hrs post-challenge, day 7 post-treatment, 100 nmol/kg SC",0.713 mm
same,Mean ear thickness of KLH-induced ear,"[4]; 48 hrs post-challenge, day 7 post-treatment, 300 nmol/kg SC",0.684 mm
same,Mean ear thickness of KLH-induced ear,"[4]; 48 hrs post-challenge, day 7 post-treatment, 700 nmol/kg SC",0.671 mm
same,dose with which a maximal effect is obtained,"[4]; KLH-induced DTH model, s.c.",300 nmol/kg
same,Mean ear thickness of KLH-induced ear,"[4]; s.c. day 6, dose not given, challenge day 7, 24 hrs post-challenge, vehicle 0.721, p=0.1216",0.704±0.018 mm
same,Mean ear thickness of KLH-induced ear,"[4]; s.c. day 6, dose not given, challenge day 7, 48 hrs post-challenge, vehicle 0.694, p=0.0008",0.652±0.026 mm
same,pIC50,"[5]; QPatch, CHO cells stably expressing human Kv1.2, read-out: Potency IC50, Kv1.2",5.95
same,Selectivity Kv1.2/Kv1.3,[5]; ratio of IC50 Kv1.2/Kv1.3,3384
